Experimental data as given in BindingDB's records for doi:10.1016/j.ejmech.2016.03.016 (Peking University, 2016).

Biological target: Neuronal acetylcholine receptor subunit alpha-7 (Homo sapiens, UniProt P36544)
Test: Agonist activity at human alpha7 nAChR expressed in xenopus oocytes preincubated for 10 mins followed by acetylcholine addition by patch clamp electrophysiological assay

Chain of Neuronal acetylcholine receptor subunit alpha-7 (P36544 whole entry): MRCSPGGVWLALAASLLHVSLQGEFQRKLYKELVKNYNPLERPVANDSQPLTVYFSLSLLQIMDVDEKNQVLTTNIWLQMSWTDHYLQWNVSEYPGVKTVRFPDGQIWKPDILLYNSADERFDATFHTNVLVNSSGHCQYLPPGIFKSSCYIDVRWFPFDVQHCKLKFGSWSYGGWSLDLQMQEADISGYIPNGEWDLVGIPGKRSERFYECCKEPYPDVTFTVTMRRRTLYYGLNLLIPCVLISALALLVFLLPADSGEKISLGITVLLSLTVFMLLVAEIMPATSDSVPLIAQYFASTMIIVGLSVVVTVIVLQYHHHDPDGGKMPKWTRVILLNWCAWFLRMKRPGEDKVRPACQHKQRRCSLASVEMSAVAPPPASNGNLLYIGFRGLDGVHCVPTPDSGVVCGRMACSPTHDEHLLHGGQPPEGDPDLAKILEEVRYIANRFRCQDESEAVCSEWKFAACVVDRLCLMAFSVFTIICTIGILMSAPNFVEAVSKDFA

Question: How did the EC50 turn out when `O=C(N[C@H]1CN2CCC1CC2)c1cc2cccc(Br)n2c1` was run?
Answer: Its EC50 is 1780 nM.
